Experiment [1] has as its system angiotensin I converting enzyme (ACE). Nature of the experiment: ACE enzymatic activity (Hipuril-His-Leu substrate, Friedland and Silverstein method) in essential hypertensive patients after oral captopril. Type of experiment: in vivo, human. The settings on record: captopril 50 to 150 mg orally.
Procedure: Three days study, each day, each six hours collect duration; samples of blood and urine were collected at the final basal period (1 hour), after they reach the supine position, as well as at the end of the study (after 6 hours). […] The enzymatic activity using Hipuril-His-Leu substrate was measured by Friedland and Silverstein method (1976).
Another experiment has as its system SHR rats. Nature of the experiment: SHR rats treated with enalapril: blood pressure. Type of experiment: in vivo, rat. The following applies: isogenic hypertensive SHR rats treated with enalapril.
For experiment [2], the system named is enzyme of 63 kDa molecular weight which breaks the Phe8-Arg9 BK bond. The following applies: enzyme contained in urine, described by Ryan et al 1978; cited from earlier work.

As for `C[C@H](CS)C(=O)N1CCC[C@H]1C(=O)O` [captopril], the “inhibition on the enzyme activity” value in experiment [1] (essential (light and/or mild) arterial hypertensive patients, one-day dose, between 1 and 2 hours after administration, Hipuril-His-Leu substrate) is 50%. Further, the “enzyme activity at the end of the studies” value in experiment [1] (essential arterial hypertensive patients, end of the study (after 6 hours)) is recorded as “returning to the basal levels”.

Turning to `CCOC(=O)[C@H](CCc1ccccc1)N[C@@H](C)C(=O)N1CCC[C@H]1C(=O)O` [enalapril], the “blood pressure of treated SHR rats” value in the experiment with SHR rats is “pressure under control”.

Take BPP9a: in experiment [2], the “inhibition of the 63 kDa urine enzyme” value is given as “not inhibited”.
